According to patent US20250011298A1, “CRYSTALLINE FORMS OF A CDK9 INHIBITOR AND USES THEREOF” (PRELUDE THERAPEUTICS INCORPORATED, priority 2021, published 2025):

Assay: Thermogravimetric analysis (TGA) of crystalline forms
Format: physicochemical
Settings: TGA thermogram; ramp from 25° C. to 600° C. at 20° C./min, nitrogen purge
Method: Crystalline forms of the compound of Formula I were analyzed using a TA Instruments Thermogravimetric Analyzer, TGA Q500 with autosampler. The general experimental conditions for TGA were ramp from 25° C. 600° C. at 20° C./min; nitrogen purge, gas flow at 25 mL/min; platinum sample pan.

TGA: degradation occurring after [°C] | Compound
> 176 | Cc1cnc(NC(=O)[C@H]2CCC[C@@H](NC(=O)CC#N)C2)cc1-c1cc(F)c2ncn(C(C)C)c2c1 [Form II]
> 176 | Cc1cnc(NC(=O)[C@H]2CCC[C@@H](NC(=O)CC#N)C2)cc1-c1cc(F)c2ncn(C(C)C)c2c1 [Form I]
